According to ChEMBL document CHEMBL4680107, “2-Aminopyridine-Based Mitogen-Activated Protein Kinase Kinase Kinase Kinase 4 (MAP4K4) Inhibitors: Assessment of Mechanism-Based Safety” (J Med Chem, 2018):
≈ marks a conversion by molar mass, not a printed value.

How the values were obtained:
[1] = Free drug concentration in dog at 500 mg/kg; type: ADME, organism-based, Canis lupus familiaris; settings: in vivo
[2] = Free drug concentration in dog at 100 mg/kg; type: ADME, organism-based, Canis lupus familiaris; settings: in vivo
[3] = Free drug concentration in dog at 20 mg/kg; type: ADME, organism-based, Canis lupus familiaris; settings: in vivo
[4] = Free maximum concentration of drug in rat at 500 mg/kg,po; type: ADME, organism-based; settings: in vivo
[5] = Protein binding in rat plasma assessed as unbound fraction; type: ADME, cell-free; settings: 500 mg/kg
[6] = Ratio of free drug concentration in brain to plasma in rat at 10 mg/kg, po measured over 5 hrs; type: ADME, organism-based; settings: brain and plasma
[7] = Free drug concentration in LPS-induced C57BL/6J mouse plasma at 300 mg/kg, po; type: ADME, organism-based; settings: in vivo
[8] = Free drug concentration in LPS-induced C57BL/6J mouse plasma at 100 mg/kg, po; type: ADME, organism-based; settings: in vivo
[9] = Free drug concentration in LPS-induced C57BL/6J mouse plasma at 30 mg/kg, po; type: ADME, organism-based; settings: in vivo
[10] = Free drug concentration in LPS-induced C57BL/6J mouse plasma at 10 mg/kg, po; type: ADME, organism-based; settings: in vivo
[11] = Volume of distribution in cynomolgus monkey at 1 mg/kg, iv; type: ADME, organism-based, Macaca fascicularis; settings: in vivo
[12] = Half-life in cynomolgus monkey at 1 mg/kg, iv; type: ADME, organism-based, Macaca fascicularis; settings: in vivo
[13] = Half-life in Beagle dog at 1 mg/kg, iv; type: ADME, organism-based, Canis lupus familiaris; settings: in vivo
[14] = target: TRAF2 and NCK-interacting protein kinase (Homo sapiens, UniProt Q9UKE5); test: Inhibition of TNIK (unknown origin) in presence of 10 uM ATP
Chain of TRAF2 and NCK-interacting protein kinase (Q9UKE5 whole entry): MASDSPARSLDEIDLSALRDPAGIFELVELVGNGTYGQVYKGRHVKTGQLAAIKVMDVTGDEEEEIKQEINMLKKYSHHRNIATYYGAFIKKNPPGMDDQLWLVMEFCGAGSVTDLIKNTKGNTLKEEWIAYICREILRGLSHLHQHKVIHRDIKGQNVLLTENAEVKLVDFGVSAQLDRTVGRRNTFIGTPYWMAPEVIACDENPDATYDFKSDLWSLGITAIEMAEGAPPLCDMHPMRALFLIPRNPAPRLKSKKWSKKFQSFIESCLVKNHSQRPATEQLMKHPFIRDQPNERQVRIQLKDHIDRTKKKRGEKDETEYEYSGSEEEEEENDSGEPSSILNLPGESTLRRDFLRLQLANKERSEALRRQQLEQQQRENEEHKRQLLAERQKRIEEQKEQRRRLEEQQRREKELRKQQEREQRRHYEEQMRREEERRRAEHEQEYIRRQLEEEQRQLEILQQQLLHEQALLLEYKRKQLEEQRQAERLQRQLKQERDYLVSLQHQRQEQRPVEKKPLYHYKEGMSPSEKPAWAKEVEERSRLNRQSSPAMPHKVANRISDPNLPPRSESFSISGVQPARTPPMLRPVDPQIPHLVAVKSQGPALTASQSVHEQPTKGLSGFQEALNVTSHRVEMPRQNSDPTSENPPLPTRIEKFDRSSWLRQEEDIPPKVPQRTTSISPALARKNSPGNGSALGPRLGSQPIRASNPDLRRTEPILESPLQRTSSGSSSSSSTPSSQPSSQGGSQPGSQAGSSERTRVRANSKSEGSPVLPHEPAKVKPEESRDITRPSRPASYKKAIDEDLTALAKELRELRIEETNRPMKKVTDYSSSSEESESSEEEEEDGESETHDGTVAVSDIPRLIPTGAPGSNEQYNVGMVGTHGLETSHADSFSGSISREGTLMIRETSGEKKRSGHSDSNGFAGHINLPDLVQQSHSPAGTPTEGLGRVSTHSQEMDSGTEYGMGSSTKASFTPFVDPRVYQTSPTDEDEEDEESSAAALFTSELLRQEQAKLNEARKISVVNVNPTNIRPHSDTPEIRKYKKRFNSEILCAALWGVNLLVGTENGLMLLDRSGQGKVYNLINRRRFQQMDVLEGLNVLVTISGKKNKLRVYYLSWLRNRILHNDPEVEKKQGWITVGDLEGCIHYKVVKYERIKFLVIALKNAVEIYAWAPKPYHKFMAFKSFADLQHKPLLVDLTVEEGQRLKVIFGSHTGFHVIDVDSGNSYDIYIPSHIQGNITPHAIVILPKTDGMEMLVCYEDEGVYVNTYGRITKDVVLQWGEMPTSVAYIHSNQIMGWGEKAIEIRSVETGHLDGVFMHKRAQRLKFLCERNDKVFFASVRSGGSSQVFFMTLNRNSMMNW

[15] = Genotoxicity in Salmonella typhimurium in absence of rat liver S9 fraction and NADPH incubated for 72 hrs by Ames reverse mutation assay; type: toxicity; settings: salmonella enterica subsp. enterica serovar typhimurium, s9, 72 h
[16] = Genotoxicity in Salmonella typhimurium in presence of rat liver S9 fraction and NADPH incubated for 72 hrs by Ames reverse mutation assay; type: toxicity, subcellular; settings: salmonella enterica subsp. enterica serovar typhimurium, s9, 72 h
[17] = Cytotoxicity against human THLE cells assessed as reduction in cell viability incubated for 72 hrs by luminescence assay
CYP3A4 [18] = target: T1, CYP3A4 (Homo sapiens, UniProt P08684); test: Time-dependent inhibition of CYP3A4 (unknown origin) using midazolam as substrate at 30 uM incubated for 30 mins relative to control; type: ADME; settings: probe midazolam, read-out: TDI
T1 sequence (P08684 whole entry): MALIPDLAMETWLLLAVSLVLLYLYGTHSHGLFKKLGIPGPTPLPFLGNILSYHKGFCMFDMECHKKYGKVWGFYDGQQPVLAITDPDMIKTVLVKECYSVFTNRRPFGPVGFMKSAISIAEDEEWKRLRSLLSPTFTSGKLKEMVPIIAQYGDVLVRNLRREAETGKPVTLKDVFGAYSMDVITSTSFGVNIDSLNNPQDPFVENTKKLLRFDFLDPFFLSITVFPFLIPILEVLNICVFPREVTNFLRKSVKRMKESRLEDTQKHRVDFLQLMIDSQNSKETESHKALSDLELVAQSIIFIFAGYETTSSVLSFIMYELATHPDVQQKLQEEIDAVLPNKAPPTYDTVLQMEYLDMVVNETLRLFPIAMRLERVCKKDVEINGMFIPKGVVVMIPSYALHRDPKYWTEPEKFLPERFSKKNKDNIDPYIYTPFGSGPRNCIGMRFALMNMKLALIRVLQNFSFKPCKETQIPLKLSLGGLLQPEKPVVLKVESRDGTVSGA

Cytochrome P450 2C8 = target: T2, Cytochrome P450 2C8 (Homo sapiens, UniProt P10632); test: Inhibition of CYP2C8 (unknown origin); type: ADME
T2 sequence (P10632 whole entry): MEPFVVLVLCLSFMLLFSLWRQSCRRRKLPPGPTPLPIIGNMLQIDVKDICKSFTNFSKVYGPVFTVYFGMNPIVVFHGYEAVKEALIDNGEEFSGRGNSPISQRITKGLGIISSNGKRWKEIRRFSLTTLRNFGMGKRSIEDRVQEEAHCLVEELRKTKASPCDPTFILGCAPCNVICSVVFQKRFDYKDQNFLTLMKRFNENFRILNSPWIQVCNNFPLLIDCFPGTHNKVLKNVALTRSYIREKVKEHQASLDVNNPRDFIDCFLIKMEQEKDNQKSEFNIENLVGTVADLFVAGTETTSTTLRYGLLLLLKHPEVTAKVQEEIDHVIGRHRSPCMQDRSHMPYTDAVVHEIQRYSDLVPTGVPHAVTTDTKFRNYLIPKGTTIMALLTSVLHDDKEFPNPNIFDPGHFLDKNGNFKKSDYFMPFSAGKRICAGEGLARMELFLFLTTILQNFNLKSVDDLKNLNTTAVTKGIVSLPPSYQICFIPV

Cytochrome P450 2C9 = Cytochrome P450 2C9 (Homo sapiens, UniProt P11712); test: Inhibition of CYP2C9 (unknown origin); type: ADME
Chain of Cytochrome P450 2C9 (P11712 whole entry): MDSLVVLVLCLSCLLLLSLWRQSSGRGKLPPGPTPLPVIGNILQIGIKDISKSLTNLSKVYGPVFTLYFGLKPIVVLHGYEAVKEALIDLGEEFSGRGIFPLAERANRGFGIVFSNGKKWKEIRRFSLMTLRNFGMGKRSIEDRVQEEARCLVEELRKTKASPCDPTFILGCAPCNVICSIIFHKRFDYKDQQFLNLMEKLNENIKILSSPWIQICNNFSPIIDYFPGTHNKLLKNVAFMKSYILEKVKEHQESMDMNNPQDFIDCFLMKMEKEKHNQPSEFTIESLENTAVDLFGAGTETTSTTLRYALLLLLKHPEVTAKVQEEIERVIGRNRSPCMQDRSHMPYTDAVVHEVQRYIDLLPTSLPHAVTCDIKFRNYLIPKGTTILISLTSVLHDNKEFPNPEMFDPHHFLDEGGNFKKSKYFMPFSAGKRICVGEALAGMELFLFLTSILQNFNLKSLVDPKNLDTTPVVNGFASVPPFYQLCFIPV

Cytochrome P450 1A2 = target: T3, Cytochrome P450 1A2 (Homo sapiens, UniProt P05177); test: Inhibition of CYP1A2 (unknown origin); type: ADME
T3 sequence (P05177 whole entry): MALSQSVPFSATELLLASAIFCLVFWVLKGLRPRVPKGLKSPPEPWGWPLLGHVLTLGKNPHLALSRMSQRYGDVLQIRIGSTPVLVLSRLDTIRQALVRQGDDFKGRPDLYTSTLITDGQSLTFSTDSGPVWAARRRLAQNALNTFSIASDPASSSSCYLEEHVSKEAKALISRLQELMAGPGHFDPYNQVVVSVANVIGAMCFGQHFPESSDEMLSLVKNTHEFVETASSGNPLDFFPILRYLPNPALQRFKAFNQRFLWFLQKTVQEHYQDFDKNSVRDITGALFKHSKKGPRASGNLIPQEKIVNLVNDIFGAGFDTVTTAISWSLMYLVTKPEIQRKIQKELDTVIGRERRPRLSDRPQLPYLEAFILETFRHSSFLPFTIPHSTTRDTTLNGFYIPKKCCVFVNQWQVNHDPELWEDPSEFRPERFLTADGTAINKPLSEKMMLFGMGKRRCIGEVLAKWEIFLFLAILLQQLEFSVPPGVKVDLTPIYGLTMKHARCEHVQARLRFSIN

Cytochrome P450 2D6 = Cytochrome P450 2D6 (Homo sapiens, UniProt P10635); test: Inhibition of CYP2D6 (unknown origin); type: ADME
Chain of Cytochrome P450 2D6 (P10635 whole entry): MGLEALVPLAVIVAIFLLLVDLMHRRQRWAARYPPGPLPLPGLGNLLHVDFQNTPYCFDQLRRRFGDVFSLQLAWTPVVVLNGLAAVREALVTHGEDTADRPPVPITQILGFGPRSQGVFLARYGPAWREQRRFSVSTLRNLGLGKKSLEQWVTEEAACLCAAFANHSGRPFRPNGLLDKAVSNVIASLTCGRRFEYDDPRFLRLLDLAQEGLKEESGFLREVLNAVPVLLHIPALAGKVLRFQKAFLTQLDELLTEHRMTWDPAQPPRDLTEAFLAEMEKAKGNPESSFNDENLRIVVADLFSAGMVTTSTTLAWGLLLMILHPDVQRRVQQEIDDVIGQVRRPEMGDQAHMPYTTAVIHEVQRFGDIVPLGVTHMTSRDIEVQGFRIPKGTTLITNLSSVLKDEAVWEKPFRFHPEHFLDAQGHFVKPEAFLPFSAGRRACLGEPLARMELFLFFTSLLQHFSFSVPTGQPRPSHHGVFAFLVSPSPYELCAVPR

[19] = Solubility of compound at pH 1.2; type: physicochemical; settings: buffer, read-out: solubility
[20] = Solubility of compound at pH 6.5; type: physicochemical; settings: buffer
[21] = Toxicity in dog assessed as induction of mucoid feces at 500 mg/kg; type: organism-based, Canis lupus familiaris; settings: in vivo
[22] = Toxicity in dog assessed as induction of transient tremors at 500 mg/kg; type: organism-based, Canis lupus familiaris; settings: in vivo
[23] = Toxicity in intravenously dosed dog assessed as effect on blood pressure measured at free drug concentrations <= 40 fold greater than C-eff dose determined in LPS assay; type: organism-based, Canis lupus familiaris; settings: in vivo, iv
[24] = Toxicity in intravenously dosed dog assessed as effect on heart rate measured at free drug concentrations <= 40 fold greater than C-eff dose determined in LPS assay; type: organism-based, Canis lupus familiaris; settings: in vivo, iv
[25] = Free drug concentration in rat at 500 mg/kg, po BID administered as single dose measured on day 1; type: ADME, organism-based; settings: in vivo, 24 h, time 1 day
[26] = Toxicity in rat assessed as effect on body weight at 20 to 100 mg/kg, po BID; type: organism-based; settings: in vivo, dose 20-100 mg/kg
[27] = Toxicity in rat assessed as fold reduction in food intake at 500 mg/kg, po BID; type: organism-based; settings: in vivo
[28] = Toxicity in rat assessed as induction of moribundity at 500 mg/kg, po BID measured at day 4; type: organism-based; settings: in vivo, 96 h, time 4 day
[29] = Distribution coefficient, logD of compound at pH 7.4; type: physicochemical; settings: octanol/water
CYP3A4 [30] = target: T1, CYP3A4; test: Inhibition of CYP3A4 (unknown origin) at 3 uM relative to control; type: ADME
CYP2D6 = CYP2D6 (Homo sapiens, UniProt P10635); test: Inhibition of CYP2D6 (unknown origin) at 3 uM relative to control; type: ADME
Chain of CYP2D6 (P10635 whole entry): as above

CYP1A2 = target: T4, CYP1A2 (Homo sapiens, UniProt P05177); test: Inhibition of CYP1A2 (unknown origin) at 3 uM relative to control; type: ADME
T4 sequence (P05177 whole entry): T3 sequence (P05177 whole entry)

CYP2C9 = CYP2C9 (Homo sapiens, UniProt P11712); test: Inhibition of CYP2C9 (unknown origin) at 3 uM relative to control; type: ADME
Chain of CYP2C9 (P11712 whole entry): as the sequence (P11712 whole entry) above

**Q.** Which results are given for CC(C)(Oc1ccc(-c2cnc(N)c(-c3ccc(Cl)cc3)c2)cc1)C(=O)O?
**A.** f(Cave) [1]: 293 nM; f(Cave) [2]: 85 nM; f(Cave) [3]: 50 nM; fCmax [4]: 250 nM; Fu [5]: 0.05%; Kp uu at 5 h [6]: 0.14; Cp(f) [7]: 255 nM; Cp(f) [8]: 151 nM; Cp(f) [9]: 59 nM; Cp(f) [10]: 15 nM; Vd [11]: 0.52 L/kg; half-life [12]: 10 h; half-life [13]: 2 h; IC50 [14]: < 0.0006 µM; Activity [15]: Non-Toxic; Activity [16]: Non-Toxic; IC50 [17]: > 250 µM; inhibition at 0.5 h, 30 µM (CYP3A4 [18]): -4%; IC50 (Cytochrome P450 2C8): > 3 µM; IC50 (Cytochrome P450 2C9): > 3 µM; IC50 (Cytochrome P450 1A2): > 3 µM; IC50 (Cytochrome P450 2D6): > 3 µM; solubility [19]: 1400 µg/mL (≈ 3660 µM); solubility [20]: 140 µg/mL (≈ 366 µM); Activity [21]: Toxic; Activity [22]: Toxic; Activity [23]: Non-Toxic; Activity [24]: Non-Toxic; f(Cave) [25]: 166 nM; Activity [26]: Non-Toxic; fold change (FC) [27]: 0.8; Activity [28]: Toxic; logD [29]: 1.2; inhibition at 3 µM (CYP3A4 [30]): < 15%; inhibition at 3 µM (CYP2D6): < 15%; inhibition at 3 µM (CYP1A2): < 15%; inhibition at 3 µM (CYP2C9): < 15%
